The results in this text go back to patent US12162890B2 (Novartis AG, priority 2015, dated 2024).

For the assay, the target named is HEK293 cells with stable expression of the GRIN1 gene and tetracycline-inducible expression of the GRIN2B gene (NMDA receptor, NR2B) (Homo sapiens, UniProt Q13224). Briefly: Fluo-8 Ca2+ flux assay: reversal of Ro 25-6981-mediated suppression of the Ca2+ response to co-agonist (glutamate/glycine). Also: test concentration or dose not given here. It is filed as cell-based. Particulars: reversal of the Ro 25-6981 suppression of the Ca2+ response to co-agonist (glutamate/glycine).
Chain of HEK293 cells with stable expression of the GRIN1 gene and tetracycline-inducible expression of the GRIN2B gene (NMDA receptor, NR2B) (Q13224 27-1484, other chains not shown): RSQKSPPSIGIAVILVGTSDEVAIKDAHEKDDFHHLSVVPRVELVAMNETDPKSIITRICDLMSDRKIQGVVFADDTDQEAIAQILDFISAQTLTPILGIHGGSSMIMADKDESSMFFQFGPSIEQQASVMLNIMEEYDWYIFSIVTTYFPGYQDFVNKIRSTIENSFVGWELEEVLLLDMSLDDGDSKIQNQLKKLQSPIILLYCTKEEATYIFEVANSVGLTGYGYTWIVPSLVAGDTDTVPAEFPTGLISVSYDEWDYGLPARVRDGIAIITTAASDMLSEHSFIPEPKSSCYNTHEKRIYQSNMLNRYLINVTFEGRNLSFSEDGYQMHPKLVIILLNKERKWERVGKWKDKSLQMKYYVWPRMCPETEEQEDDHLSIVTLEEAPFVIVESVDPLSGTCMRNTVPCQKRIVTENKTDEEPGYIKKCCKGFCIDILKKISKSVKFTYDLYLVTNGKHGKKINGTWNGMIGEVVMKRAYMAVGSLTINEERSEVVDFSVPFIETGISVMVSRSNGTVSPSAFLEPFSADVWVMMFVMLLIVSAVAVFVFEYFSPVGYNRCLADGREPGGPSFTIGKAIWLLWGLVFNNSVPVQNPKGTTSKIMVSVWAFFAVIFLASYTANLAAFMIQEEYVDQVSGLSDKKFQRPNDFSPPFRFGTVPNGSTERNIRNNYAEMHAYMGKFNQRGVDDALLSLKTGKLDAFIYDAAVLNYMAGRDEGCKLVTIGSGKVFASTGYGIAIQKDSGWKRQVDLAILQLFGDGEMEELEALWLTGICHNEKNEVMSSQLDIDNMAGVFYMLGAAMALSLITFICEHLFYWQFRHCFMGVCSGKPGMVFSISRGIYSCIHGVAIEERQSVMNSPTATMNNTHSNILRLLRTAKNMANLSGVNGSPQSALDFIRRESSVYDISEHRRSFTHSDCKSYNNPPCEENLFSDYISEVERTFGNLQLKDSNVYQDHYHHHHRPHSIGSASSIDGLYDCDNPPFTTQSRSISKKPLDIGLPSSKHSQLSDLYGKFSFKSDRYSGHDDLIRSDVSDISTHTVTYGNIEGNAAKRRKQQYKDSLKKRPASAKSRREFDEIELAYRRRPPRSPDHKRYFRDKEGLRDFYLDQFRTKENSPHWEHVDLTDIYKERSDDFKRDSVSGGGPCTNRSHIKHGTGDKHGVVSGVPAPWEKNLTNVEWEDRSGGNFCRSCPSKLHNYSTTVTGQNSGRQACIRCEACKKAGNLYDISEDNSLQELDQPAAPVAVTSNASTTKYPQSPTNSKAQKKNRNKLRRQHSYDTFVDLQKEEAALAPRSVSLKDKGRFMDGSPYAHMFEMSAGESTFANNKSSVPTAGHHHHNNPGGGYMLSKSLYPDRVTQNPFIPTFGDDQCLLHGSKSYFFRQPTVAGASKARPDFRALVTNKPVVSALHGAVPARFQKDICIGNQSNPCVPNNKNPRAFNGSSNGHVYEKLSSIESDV
As for `COCCn1cc(-c2ccc(Cl)c(F)c2)c2c(=O)n(CC(=O)N3CCCC3)cnc21` [Example 187, 5-(4-chloro-3-fluorophenyl)-7-(2-methoxyethyl)-3-(2-oxo-2-(pyrrolidin-1-yl)ethyl)-3H-pyrrolo[2,3-d]pyrimidin-4(7H)-one], the “Response Recovered (%)” value stood at 9%.
For `COCCn1cc(-c2ccc(F)c(C(F)(F)F)c2)c2c(=O)n(CC(=O)N3CCC(F)C3)cnc21` (stereo not drawn) [Example 188, 5-(4-fluoro-3-(trifluoromethyl)phenyl)-3-(2-(3-fluoropyrrolidin-1-yl)-2-oxoethyl)-7-(2-methoxyethyl)-3H-pyrrolor[2,3-d]pyrimidin-4(7H)-one], the “Response Recovered (%)” value is listed as 53%.
Take `COCn1cc(-c2ccc(F)c(C(F)(F)F)c2)c2c(=O)n(CC(=O)N3CCC(F)C3)cnc21` (stereo not drawn) [Example 189, 5-(4-fluoro-3-(trifluoromethyl)phenyl)-3-(2-(3-fluoropyrrolidin-1-yl)-2-oxoethyl)-7-(methoxymethyl)-3H-pyrrolo[2,3-d]pyrimidin-4(7H)-one]: the “Response Recovered (%)” value is reported as 39%.
With `O=C(Cn1cnc2c(c(-c3ccc(Cl)c(C(F)(F)F)c3)cn2C2CC2)c1=O)N1CCCC1` [Example 190, 5-(4-chloro-3-(trifluoromethyl)phenyl)-7-cyclopropyl-3-(2-oxo-2-(pyrrolidin-1-yl)ethyl)-3H-pyrrolo[2,3-d]pyrimidin-4(7H)-one], the “Response Recovered (%)” value worked out at 71%.
For the compound `O=C(Cn1cnc2c(c(-c3ccc(Cl)c(F)c3)cn2C2CC2)c1=O)N1CCCC1` [Example 191, 5-(4-chloro-3-fluorophenyl)-7-cyclopropyl-3-(2-oxo-2-(pyrrolidin-1-yl)ethyl)-3H-pyrrolo[2,3-d]pyrimidin-4(7H)-one], the “Response Recovered (%)” value worked out at 36%.
For `O=C(Cn1cnc2c(c(-c3ccc(F)c(Cl)c3)cn2C2CC2)c1=O)N1CCCC1` [Example 192, 5-(3-chloro-4-fluorophenyl)-7-cyclopropyl-3-(2-oxo-2-(pyrrolidin-1-yl)ethyl)-3H-pyrrolo[2,3-d]pyrimidin-4(7H)-one] the value was 42%; for `O=C(Cn1cnc2c(c(-c3ccc(Cl)c(C(F)(F)F)c3)cn2CCO)c1=O)N1CCCC1` [Example 194, 5-(4-chloro-3-(trifluoromethyl)phenyl)-7-(2-hydroxyethyl)-3-(2-oxo-2-(pyrrolidin-1-yl)ethyl)-3H-pyrrolo[2,3-d]pyrimidin-4(7H)-one], 2%; for `O=C(Cn1cnc2c(c(-c3ccc(F)c(Cl)c3)cn2CCO)c1=O)N1CCCC1` [Example 195, 5-(3-chloro-4-fluorophenyl)-7-(2-hydroxyethyl)-3-(2-oxo-2-(pyrrolidin-1-yl)ethyl)-3H-pyrrolo[2,3-d]pyrimidin-4(7H)-one], 21%.
Regarding `O=C(Cn1cnc2c(c(-c3ccc(F)c(C(F)(F)F)c3)cn2CCO)c1=O)N1CCC(F)C1` (stereo not drawn) [Example 196, 5-(4-fluoro-3-(trifluoromethyl)phenyl)-3-(2-(3-fluoropyrrolidin-1-yl)-2-oxoethyl)-7-(2-hydroxyethyl)-3H-pyrrolo[2,3-d]pyrimidin-4(7H)-one], the “Response Recovered (%)” value worked out at 34%.
In the case of `O=C(Cn1cnc2c(c(-c3ccc(Cl)c(F)c3)cn2CCO)c1=O)N1CCCC1` [Example 197] it was 7%; in that of `O=C(Cn1ccc2[nH]cc(-c3ccc(Cl)c(C(F)(F)F)c3)c2c1=O)N1CCCC1` [Example 198, 3-(4-chloro-3-(trifluoromethyl)phenyl)-5-(2-oxo-2-(pyrrolidin-1-yl)ethyl)-1H-pyrrolo[3,2-c]pyridin-4(5H)-one], 104%; in that of `C[Si](C)(C)CCOCn1cc(-c2ccc(Cl)c(C(F)(F)F)c2)c2c(=O)n(CC(=O)N3CCC(F)C3)ccc21` (stereo not drawn) [Example 199, 3-(4-chloro-3-(trifluoromethyl)phenyl)-5-(2-(3-fluoropyrrolidin-1-yl)-2-oxoethyl)-1-((2-(trimethylsilyl)ethoxy)methyl)-1H-pyrrolo[3,2-c]pyridin-4(5H)-one], 47%.
In the case of `C[Si](C)(C)CCOCn1cc(-c2ccc(Cl)c(C(F)(F)F)c2)c2c(=O)n(CC(=O)N3CC(F)(F)C3)ccc21` [Example 200, 3-(4-chloro-3-(trifluoromethyl)phenyl)-5-(2-(3,3-difluoroazetidin-1-yl)-2-oxoethyl)-1-((2-(trimethylsilyl)ethoxy)methyl)-1H-pyrrolo[3,2-c]pyridin-4(5H)-one], the “Response Recovered (%)” value stood at 18%.
In the case of `C[Si](C)(C)CCOCn1cc(-c2ccc(Cl)c(F)c2)c2c(=O)n(CC(=O)N3CCCC3)ccc21` [Example 201, 3-(4-chloro-3-fluorophenyl)-5-(2-oxo-2-(pyrrolidin-1-yl)ethyl)-1-((2-(trimethylsilyl)ethoxy)methyl)-1H-pyrrolo[3,2-c]pyridin-4(5H)-one] it was 62%; in that of `C[Si](C)(C)CCOCn1cc(-c2ccc(Cl)c(F)c2)c2c(=O)n(CC(=O)N3CCC(F)C3)ccc21` (stereo not drawn) [Example 202, 3-(4-chloro-3-fluorophenyl)-5-(2-(3-fluoropyrrolidin-1-yl)-2-oxoethyl)-1-((2-(trimethylsilyl)ethoxy)methyl)-1H-pyrrolo[3,2-c]pyridin-4(5H)-one], 32%.
In the case of `O=C(Cn1ccc2[nH]cc(-c3ccc(Cl)c(C(F)(F)F)c3)c2c1=O)N1CCC(F)C1` (stereo not drawn) [Example 203, 3-(4-chloro-3-(trifluoromethyl)phenyl)-5-(2-(3-fluoropyrrolidin-1-yl)-2-oxoethyl)-1H-pyrrolo[3,2-c]pyridin-4(5H)-one] it was 42%.
In the case of `O=C(Cn1ccc2[nH]cc(-c3ccc(Cl)c(F)c3)c2c1=O)N1CCC(F)C1` (stereo not drawn) [Example 204, 3-(4-chloro-3-fluorophenyl)-5-(2-(3-fluoropyrrolidin-1-yl)-2-oxoethyl)-1H-pyrrolo[3,2-c]pyridin-4(5H)-one] it was 47%; in that of `C[Si](C)(C)CCOCn1cc(-c2ccc(F)c(Cl)c2)c2c(=O)n(CC(=O)N3CCCC3)ccc21` [Example 205, 3-(3-chloro-4-fluorophenyl)-5-(2-oxo-2-(pyrrolidin-1-yl)ethyl)-1-((2-(trimethylsilyl)ethoxy)methyl)-1H-pyrrolo[3,2-c]pyridin-4(5H)-one], 59%; in that of `C[Si](C)(C)CCOCn1cc(-c2ccc(F)c(Cl)c2)c2c(=O)n(CC(=O)N3CCC(F)C3)ccc21` (stereo not drawn) [Example 206, 3-(3-chloro-4-fluorophenyl)-5-(2-(3-fluoropyrrolidin-1-yl)-2-oxoethyl)-1-((2-(trimethylsilyl)ethoxy)methyl)-1H-pyrrolo[3,2-c]pyridin-4(5H)-one], 107%.
In the case of `C[Si](C)(C)CCOCn1cc(-c2ccc(F)c(Cl)c2)c2c(=O)n(CC(=O)N3CC(F)(F)C3)ccc21` [Example 207, 3-(3-chloro-4-fluorophenyl)-5-(2-(3,3-difluoroazetidin-1-yl)-2-oxoethyl)-1-((2-(trimethylsilyl)ethoxy)methyl)-1H-pyrrolo[3,2-c]pyndin-4(5H)-one], the “Response Recovered (%)” value is on record as 69%.
On to `O=C(Cn1ccc2[nH]cc(-c3ccc(F)c(Cl)c3)c2c1=O)N1CCCC1` [Example 208, 3-(3-chloro-4-fluorophenyl)-5-(2-oxo-2-(pyrrolidin-1-yl)ethyl)-1H-pyrrolo[3,2-c]pyridin-4(5H)-one], for which the “Response Recovered (%)” value worked out at 60%.
As for `O=C(Cn1ccc2[nH]cc(-c3ccc(F)c(Cl)c3)c2c1=O)N1CCC(F)C1` (stereo not drawn) [Example 209, 3-(3-chloro-4-fluorophenyl)-5-(2-(3-fluoropyrrolidin-1-yl)-2-oxoethyl)-1H-pyrrolo[3,2-c]pyridin-4(5H)-one], the “Response Recovered (%)” value stood at 53%.
Turning to `O=C(Cn1ccc2[nH]cc(-c3cnc(Cl)c(Cl)c3)c2c1=O)N1CC(F)C(F)C1` (stereo not drawn) [Example 210, 3-(5,6-dichloropyridin-3-yl)-5-(2-(3,4-difluoropyrrolidin-1-yl)-2-oxoethyl)-1H-pyrrolo[3,2-c]pyridin-4(5H)-one], the “Response Recovered (%)” value was 26%.
`O=C(Cn1ccc2[nH]cc(-c3ccc(Cl)c(F)c3)c2c1=O)N1CCCC1` [Example 211, 3-(4-chloro-3-fluorophenyl)-5-(2-oxo-2-(pyrrolidin-1-yl)ethyl)-1H-pyrrolo[3,2-c]pyridin-4(5H)-one]: the “Response Recovered (%)” value was found to be 55%.
In the case of `O=C(Cn1ccc2[nH]cc(-c3ccc(Cl)c(C(F)(F)F)c3)c2c1=O)N1CC(F)(F)C1` [Example 212, 3-(4-chloro-3-(trifluoromethyl)phenyl)-5-(2-(3,3-difluoroazetidin-1-yl)-2-oxoethyl)-1H-pyrrolo[3,2-c]pyridin-4(5H)-one] it was 107%.
In the case of `O=C(Cn1ccc2[nH]cc(-c3ccc(Cl)c(F)c3)c2c1=O)N1CC(F)(F)C1` [Example 213, 3-(4-chloro-3-fluorophenyl)-5-(2-(3,3-difluoroazetidin-1-yl)-2-oxoethyl)-1H-pyrrolo[3,2-c]pyridin-4(5H)-one] it was 109%; in that of `O=C(Cn1ccc2[nH]cc(-c3ccc(Cl)c(Cl)c3)c2c1=O)N1CCC(F)C1` (stereo not drawn) [Example 214, 3-(3,4-dichlorophenyl)-5-(2-(3-fluoropyrrolidin-1-yl)-2-oxoethyl)-1H-pyrrolo[3,2-c]pyridin-4(5H)-one], 84%.
On to `O=C(Cn1ccc2[nH]cc(-c3ccc(F)c(C(F)(F)F)c3)c2c1=O)N1CCC(F)C1` (stereo not drawn) [Example 215, 3-(4-fluoro-3-(trifluoromethyl)phenyl)-5-(2-(3-fluoropyrrolidin-1-yl)-2-oxoethyl)-1H-pyrrolo[3,2-c]pyridin-4(5H)-one], for which the “Response Recovered (%)” value was 89%.
As to `O=C(Cn1ccc2[nH]cc(-c3ccc(F)c(C(F)(F)F)c3)c2c1=O)N1CC(F)(F)C1` [Example 216, 5-(2-(3,3-difluoroazetidin-1-yl)-2-oxoethyl)-3-(4-fluoro-3-(trifluoromethyl)phenyl)-1H-pyrrolo[3,2-c]pyridin-4(5H)-one], the “Response Recovered (%)” value came to 101%.
For `O=C(Cn1ccc2[nH]cc(-c3ccc(Cl)c(Cl)c3)c2c1=O)N1CCCC1` [Example 217, 3-(3,4-dichlorophenyl)-5-(2-oxo-2-(pyrrolidin-1-yl)ethyl)-1H-pyrrolo[3,2-c]pyridin-4(5H)-one] the value was 70%.
